Laboratory results reported in patent US9873670B2, “Arylquinoline and analog compounds and use thereof to treat cancer” (UNIVERSITY OF KENTUCKY RESEARCH FOUNDATION, priority 2013, dated 2018).

System: cell surface GRP78
Assay: Paracrine apoptosis by CM from treated MEFs with GRP78 neutralizing antibody
Type: cell-based
Conditions: CM from Par-4+/+ MEFs treated with 500 nM
Experimental: FIGS. 4A and 4B are bar graphs illustrating percent cell surface GRP-78 expression and apoposis activity for an arylquinoline of the present disclosure. FIG. 4A is a bar graph showing cell surface GRP78 levels in cancer cells treated with CM from MEFs exposed to Arylquin 1. Par-4+/+ MEFs or Par-4−/− MEFs were treated with vehicle or Arylquin 1 (500 nM) for 24 h. The CM from these MEFs was incubated with the indicated cancer cells for 24 h. The cancer cells were then subjected to FACS analysis for cell surface GRP78 expression. Data shown represent mean values of three experiments±s.d. Asterisks (**) or (*) indicate statistical significance (P<0.0001) or (P<0.001), respectively, based on two-way ANOVA with data normality and equality of variance assumptions. […] After 24 h, the cancer cells were scored for apoptosis by ICC for active caspase-3. […]
See Hebbar, N., Wang, C. & Rangnekar, V. M. J Cell Phys 227, 3715-3721 (2012) and Shrestha-Bhattarai, T., Hebbar, N. & Rangnekar, V. M. Cancer Cell 24, 3-5 (2013). A total of three independent experiments were performed; and approximately 500 cells were scored in each experiment for apoptosis under a fluorescent microscope. Cell surface GRP78 expression on the cancer cell surface was quantified by FACS analysis in the Flow Cytometry Shared Resource Facility, Markey Cancer Center as previously described. […]

With `CN(C)c1ccc2cc(-c3ccccc3F)c(N)nc2c1` [Arylquin 1, 3-(2-fluorophenyl)-N^7,N^7-dimethylquinoline-2,7-diamine] the “mediation of paracrine apoptosis” value was “mediated via cell surface GRP78”.
